Our source for the IC50 values is patent US7511065B2, “Mixed lineage kinase modulators” (Eli Lilly and Company, priority 2002, dated 2009).

Counter-ions that a name gives are not always drawn.

T1 sequence (Q9NYL2 1-455 isoform Q9NYL2-2): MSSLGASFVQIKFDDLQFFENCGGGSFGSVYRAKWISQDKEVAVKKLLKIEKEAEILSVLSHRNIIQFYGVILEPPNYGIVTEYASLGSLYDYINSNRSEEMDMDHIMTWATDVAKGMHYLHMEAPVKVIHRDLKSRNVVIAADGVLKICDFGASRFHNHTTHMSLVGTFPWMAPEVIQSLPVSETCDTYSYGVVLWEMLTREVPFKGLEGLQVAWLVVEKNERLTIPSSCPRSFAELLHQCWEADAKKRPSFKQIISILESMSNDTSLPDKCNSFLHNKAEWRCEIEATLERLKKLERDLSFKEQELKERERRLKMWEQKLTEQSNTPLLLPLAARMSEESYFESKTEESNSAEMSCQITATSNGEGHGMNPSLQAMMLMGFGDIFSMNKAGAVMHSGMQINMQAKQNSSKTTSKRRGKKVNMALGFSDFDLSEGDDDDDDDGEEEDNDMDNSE

The assay concerns the target T1, MLK-7 (Homo sapiens, UniProt Q9NYL2).
T1 construct: GST; His tag; made in house; host or cells: Sf9 insect cells (baculovirus, pVL1392)
In words: In vitro assay of purified MLK-7 kinase activity (33P transfer from ATP to myelin basic protein). To be noted: recombinant GST-tagged MLK-7 at 1 nm, 30 uM ATP, 5 uM MBP substrate, 2 hours room temperature; read-out: MLK7 IC50. The class given is biochemical. In a few lines:
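GST/His-tagged MLK-7 from Sf9 (baculovirus), 1 nM, with 5 uM MBP, 30 uM ATP plus 33P, 5 mM MgCl2, 2 mM DTT, 4% DMSO in 44 mM HEPES pH 7.4; 2 h at room temperature, stopped with phosphoric acid. Filter-bound 33P counted; IC50 for reduced phosphate transfer, Ki via Cheng-Prusoff.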
Regarding `NC(=O)COc1ccc(-c2ccc3c(-c4c(-c5ccccn5)nn5c4CCC5)ccnc3c2)cc1` [Example 117, 2-{4-[4-(2-Pyridin-2-yl-5,6-dihydro-4H-pyrrolo[1,2-b]pyrazol-3-yl)quinolin-7-yl]phenoxy}acetamide Trifluoroacetic Acid], the IC50 is at most 100 nM.
The result for `COCCOc1ccc(-c2ccc3c(-c4c(-c5ccccn5)nn5c4CCC5)ccnc3c2)cc1` [Example 118] reads at most 100 nM; that for `FCCOc1ccc(-c2ccc3c(-c4c(-c5ccccn5)nn5c4CCC5)ccnc3c2)cc1` [Example 119, 7-[4-(2-Fluoroethoxy)phenyl]-4-(2-pyridin-2-yl-5,6-dihydro-4H-pyrrolo[1,2-b]pyrazol-3-yl)quinoline Trifluoroacetic Acid], at most 100 nM.
In the case of `FC(F)(F)COc1ccc(-c2ccc3c(-c4c(-c5ccccn5)nn5c4CCC5)ccnc3c2)cc1` [Example 120, 4-(2-Pyridin-2-yl-5,6-dihydro-4H-pyrrolo[1,2-b]pyrazol-3-yl)-7-[4-(2,2,2-trifluoroethoxy)phenyl)quinoline Trifluoroacetic Acid] it was at most 100 nM; in that of `CC(C)(C)OC(=O)NCCNC(=O)c1ccc(-c2ccc3c(-c4c(-c5ccccn5)nn5c4CCC5)ccnc3c2)cc1` [Example 121, (2-{4-[4-(2-Pyridin-2-yl-5,6-dihydro-4H-pyrrolo[1,2-b]pyrazol-3-yl)-quinolin-7-yl]-benzoylamino}-ethyl)-carbamic Acid tert-Butyl Ester], at most 100 nM; in that of `O=C(c1ccc(-c2ccc3c(-c4c(-c5ccccn5)nn5c4CCC5)ccnc3c2)cc1)N1CCCCC1` [Example 122, Piperidin-1-yl-{4-[4-(2-pyridin-2-yl-5,6-dihydro-4H-pyrrolo[1,2-b]pyrazol-3-yl)-quinolin-7-yl]-phenyl}-methanone], at most 100 nM.
Consider `O=C(c1ccc(-c2ccc3c(-c4c(-c5ccccn5)nn5c4CCC5)ccnc3c2)cc1)N1CCSCC1` [Example 123, {4-[4-(2-Pyridin-2-yl-5,6-dihydro-4H-pyrrolo[1,2-b]pyrazol-3-yl)-quinolin-7-yl]-phenyl}-thiomorpholin-4-yl-methanone], for which the IC50 is at most 100 nM.
Consider `O=C(c1ccc(-c2ccc3c(-c4c(-c5ccccn5)nn5c4CCC5)ccnc3c2)cc1)N1CCOCC1` [Example 124, Morpholin-4-yl-{4-[4-(2-pyridin-2-yl-5,6-dihydro-4H-pyrrolo[1,2-b]pyrazol-3-yl)-quinolin-7-yl]-phenyl}-methanone], for which the IC50 is at most 100 nM.
The result for `NC(=O)CNC(=O)c1ccc(-c2ccc3c(-c4c(-c5ccccn5)nn5c4CCC5)ccnc3c2)cc1` [Example 125, N-Carbamoylmethyl-4-[4-(2-pyridin-2-yl-5,6-dihydro-4H-pyrrolo[1,2-b]pyrazol-3-yl)-quinolin-7-yl]-benzamide] reads at most 100 nM.
In the case of `CC(C)NCCNC(=O)c1ccc(-c2ccc3c(-c4c(-c5ccccn5)nn5c4CCC5)ccnc3c2)cc1` [Example 126, N-(2-Isopropylamino-ethyl)-4-[4-(2-pyridin-2-yl-5,6-dihydro-4H-pyrrolo[1,2-b]pyrazol-3-yl)-quinolin-7-yl]-benzamide] it was at most 100 nM.
On to `CCOC(=O)CCNC(=O)c1ccc(-c2ccc3c(-c4c(-c5ccccn5)nn5c4CCC5)ccnc3c2)cc1` [Example 128, 3-{4-[4-(2-Pyridin-2-yl-5,6-dihydro-4H-pyrrolo[1,2-b]pyrazol-3-yl)-quinolin-7-yl]-benzoylamino}-propionic Acid Ethyl Ester], for which the IC50 was at most 100 nM.
The result for `CC(C)(C)OC(=O)N1CCCC(NC(=O)c2ccc(-c3ccc4c(-c5c(-c6ccccn6)nn6c5CCC6)ccnc4c3)cc2)C1` (stereo not drawn) [Example 130, 3-{4-[4-(2-Pyridin-2-yl-5,6-dihydro-4H-pyrrolo[1,2-b]pyrazol-3-yl)-quinolin-7-yl]-benzoylamino}-piperidine-1-carboxylic Acid tert-Butyl Ester] reads at most 100 nM; that for `CC(C)(C)OC(=O)NCCCC[C@H](NC(=O)c1ccc(-c2ccc3c(-c4c(-c5ccccn5)nn5c4CCC5)ccnc3c2)cc1)C(=O)OC(C)(C)C` [Example 131, 6-tert-Butoxycarbonylamino-2(S)-{4-[4-(2-pyridin-2-yl-5,6-dihydro-4H-pyrrolo[1,2-b]pyrazol-3-yl)-quinolin-7-yl]-benzoylamino}-hexanoic acid tert-butyl ester], at most 1000 nM; that for `O=C(NCCN1CCOCC1)c1ccc(-c2ccc3c(-c4c(-c5ccccn5)nn5c4CCC5)ccnc3c2)cc1` [Example 132, N-(2-Morpholin-4-yl-ethyl)-4-[4-(2-pyridin-2-yl-5,6-dihydro-4H-pyrrolo[1,2-b]pyrazol-3-yl)-quinolin-7-yl]-benzamide], at most 100 nM.
Regarding `O=C(c1ccc(-c2ccc3c(-c4c(-c5ccccn5)nn5c4CCC5)ccnc3c2)cc1)N1CCS(=O)(=O)CC1` [Example 133, (1,1-Dioxo-1λ^6-thiomorpholin-4-yl)-{4-[4-(2-pyridin-2-yl-5,6-dihydro-4H-pyrrolo[1,2-b]pyrazol-3-yl)-quinolin-7-yl]-phenyl}-methanone], the IC50 is at most 100 nM.
In the case of `CSC[C@@H](NC(=O)c1ccc(-c2ccc3c(-c4c(-c5ccccn5)nn5c4CCC5)ccnc3c2)cc1)C(=O)OC(C)(C)C` [Example 134, 3-Methylsulfanyl-2(S)-{4-[4-(2-pyridin-2-yl-5,6-dihydro-4H-pyrrolo[1,2-b]pyrazol-3-yl)-quinolin-7-yl]-benzoylamino}-propionic Acid tert-Butyl Ester] it was at most 1000 nM; in that of `CC(C)(C)OC(=O)CC[C@H](NC(=O)c1ccc(-c2ccc3c(-c4c(-c5ccccn5)nn5c4CCC5)ccnc3c2)cc1)C(=O)OC(C)(C)C` [Example 135, 2(S)-{4-[4-(2-Pyridin-2-yl-5,6-dihydro-4H-pyrrolo[1,2-b]pyrazol-3-yl)-quinolin-7-yl]-benzoylamino}-pentanedioic Acid Di-tert-Butyl Ester], at most 1000 nM.
Regarding `CN(C)C(=O)c1ccc(-c2ccc3c(-c4c(-c5ccccn5)nn5c4CCC5)ccnc3c2)cc1` [Example 136, N,N-Dimethyl-4-[4-(2-pyridin-2-yl-5,6-dihydro-4H-pyrrolo[1,2-b]pyrazol-3-yl)-quinolin-7-yl]-benzamide], the IC50 is at most 100 nM.
With `CC(C)(C)OC(=O)CCNC(=O)c1ccc(-c2ccc3c(-c4c(-c5ccccn5)nn5c4CCC5)ccnc3c2)cc1` [Example 137, 3-{4-[4-(2-Pyridin-2-yl-5,6-dihydro-4H-pyrrolo[1,2-b]pyrazol-3-yl)-quinolin-7-yl]-benzoylamino}-propionic Acid tert-Butyl Ester], the IC50 is at most 100 nM.
The result for `CNC(=O)c1ccc(-c2ccc3c(-c4c(-c5ccccn5)nn5c4CCC5)ccnc3c2)cc1` [Example 138, N-Methyl-4-[4-(2-pyridin-2-yl-5,6-dihydro-4H-pyrrolo[1,2-b]pyrazol-3-yl)-quinolin-7-yl]-benzamide] reads at most 100 nM.
The result for `CS(=O)(=O)CCNC(=O)c1ccc(-c2ccc3c(-c4c(-c5ccccn5)nn5c4CCC5)ccnc3c2)cc1` [Example 139, N-(2-Methanesulfonyl-ethyl)-4-[4-(2-pyridin-2-yl-5,6-dihydro-4H-pyrrolo[1,2-b]pyrazol-3-yl)-quinolin-7-yl]-benzamide] reads at most 100 nM; that for `CN(C)/C=N/C(=O)c1ccc(-c2ccc3c(-c4c(-c5ccccn5)nn5c4CCC5)ccnc3c2)cc1` [Example 140, N-Dimethylaminomethylene-4-[4-(2-pyridin-2-yl-5,6-dihydro-4H-pyrrolo[1,2-b]pyrazol-3-yl)-quinolin-7-yl]-benzamide], at most 100 nM; that for `NC(=O)c1ccc(-c2ccc3c(-c4c(-c5ccccn5)nn5c4CCC5)ccnc3c2)cc1` [Example 141, 4-[4-(2-Pyridin-2-yl-5,6-dihydro-4H-pyrrolo[1,2-b]pyrazol-3-yl)-quinolin-7-yl]-benzamide], at most 100 nM.
The result for `NCCCC[C@H](NC(=O)c1ccc(-c2ccc3c(-c4c(-c5ccccn5)nn5c4CCC5)ccnc3c2)cc1)C(=O)O` [Example 143, 6-Amino-2(S)-{4-[4-(2-pyridin-2-yl-5,6-dihydro-4H-pyrrolo[1,2-b]pyrazol-3-yl)-quinolin-7-yl]-benzoylamino}-hexanoic acid, Ditrifluoroacetic Acid Salt] reads at most 100 nM; that for `CSC[C@@H](NC(=O)c1ccc(-c2ccc3c(-c4c(-c5ccccn5)nn5c4CCC5)ccnc3c2)cc1)C(=O)O` [Example 145, 3-Methylsulfanyl-2(S)-{4-[4-(2-pyridin-2-yl-5,6-dihydro-4H-pyrrolo[1,2-b]pyrazol-3-yl)-quinolin-7-yl]-benzoylamino}-propionic Acid Trifluoroacetic Acid Salt], at most 100 nM.
Consider `O=C(O)CC[C@H](NC(=O)c1ccc(-c2ccc3c(-c4c(-c5ccccn5)nn5c4CCC5)ccnc3c2)cc1)C(=O)O` [Example 146, 2(S)-{4-[4-(2-Pyridin-2-yl-5,6-dihydro-4H-pyrrolo[1,2-b]pyrazol-3-yl)-quinolin-7-yl]-benzoylamino}-pentanedioic Acid Trifluoroacetic Acid Salt], for which the IC50 is at most 100 nM.
As for `O=C(O)CCNC(=O)c1ccc(-c2ccc3c(-c4c(-c5ccccn5)nn5c4CCC5)ccnc3c2)cc1` [Example 147, 3-{4-[4-(2-Pyridin-2-yl-5,6-dihydro-4H-pyrrolo[1,2-b]pyrazol-3-yl)-quinolin-7-yl]-benzoylamino}-propionic Acid Trifluoroacetic Acid Salt], the IC50 was at most 100 nM.
